Source: patent US12497359B2, “Acrylamide derivatives” (NRG Therapeutics Ltd, priority 2020, dated 2025)
≈ marks a conversion by molar mass, not a printed value. Structures can show the parent of a compound that is named as a salt.

What was measured:
mPTP = mPTP activity assay in isolated rat liver mitochondria (Ca2+ retention, Fluo5N, FLIPR); format: biochemical; settings: isolated rat liver mitochondria; average value from multiple experiments (n ≥ 2)
Description: Pharmacological inhibition or modulation of the mPTP can be measured in well characterised ‘Ca^2+ retention’ assays performed in isolated mitochondria. In vitro, isolated mitochondria rapidly sequester exogenous Ca^2+ until the intramitochondrial Ca^2+ concentration reaches the threshold for mPTP activation. Once the pore is activated, mitochondrial integrity is compromised and the stored Ca^2+ is released. The distribution of Ca^2+ between extra- and intra-mitochondrial compartments can be measured in real time with the use of membrane-impermeant Ca^2+ sensitive fluorescent dyes. Depending on the configuration of the assay, inhibition or modulation of the mPTP either delays the opening of the pore or increases the concentration of Ca^2+ required to induce mPTP opening.
mPTP activity was measured in mitochondria freshly isolated from female Sprague Dawley (250 to 300 gram) rat livers using the following method. Cervical dislocation was performed on the rat. The liver was then perfused in-situ with ˜40 ml cold Dulbecco's Phosphate Buffered Saline (DPBS) prior to dissection and transferred into 30 ml Isolation Buffer (250 mM Sucrose, 10 mM KCl, 1 mM EGTA, 1 mM EDTA, 25 mM HEPES, adjusted to pH 7.5 with 1 M NaOH). Each lobe of the liver was then removed from the buffer, minced using tweezers and a scalpel into ˜5 mm pieces then transferred into a 50 ml Potterton dounce homogenization tube on ice containing 30 ml ice-cold centrifugation buffer (300 mM Trehalose, 25 mM HEPES, 1 mM EGTA, 1 mM EDTA, 10 mM KCl, adjusted to pH 7.5 with 1 M NaOH and supplemented with 0.1% bovine serum albumin (BSA) and complete protease inhibitor cocktail (one tablet of inhibitor per 50 mls of buffer). Homogenisation was carried out using a teflon pestle at 1800 rpm. The slurry was centrifuged at 800 g for 10 min at 4° C., then the supernatant centrifuged at 10,000 g for 10 min. The pellet was washed once with FLIPR assay buffer (75 mM Mannitol, 25 mM Sucrose, 5 mM Potassium Phosphate Monobasic, 20 mM Tris base, 100 mM KCl, 0.1% BSA adjusted to pH 7.4 with 5 M HCl) centrifuged again, then resuspended in FLIPR assay buffer to a concentration of 8.8 mg/ml protein.
Test compounds (10 mM stock in DMSO) were serially diluted in DMSO in half log steps to generate 10 test concentrations (final concentrations in assay 30 μM to 1 nM). An intermediate dilution of 5 μl DMSO samples into 247 μl FLIPR assay buffer was carried out prior to transfer of 5 μl into duplicate wells of a 384 well polypropylene assay plate. Control wells were 0.5% (v/v) DMSO and 5 μM cyclosporin A.
A stock mitochondria/Fluo5N assay solution was prepared in 5.6 ml FLIPR assay buffer (at RT) supplemented with succinate disodium salt (10 mM), rotenone (1 μM), Fluo5N pentapotassium salt (2 μM) and 1 ml mitochondria suspension, then transferred (15 μl) into the assay plate containing test compounds and incubated for 10 min at RT. Assay plates were then transferred to a FLIPR Tetra plate reader (Molecular Devices). Dye fluorescence was then measured every 3 sec for a total of 10 min. After 12 sec, a 2.5 μl bolus of CaCl2 (75 μM) was added from a source plate containing 675 μM CaCl2 in FLIPR assay buffer. IC50 values for test compounds were calculated using the fluorescence value collected at the 10 min timepoint with % inhibition calculated using the DMSO control and cyclosporin A values as […] respectively.

[1] = Hepatocyte clearance assay, rat; format: in vitro ADME; settings: cryopreserved primary rat hepatocytes, average value from two experiments, read-out: Rat heps intrinsic clearance (CLint)
Description: In vitro clearance studies were performed in primary rat and human hepatocytes (BioIVT). Vials of cryopreserved rat or human hepatocytes were thawed in a 37° C. water bath for 2 min. Cells were transferred into thawing medium (Williams' Medium E containing 30% Percoll, 1× GlutaMAX-1, 15 mM HEPES, 5% fetal bovine serum (FBS), 4 μg/ml insulin, 1 μM dexamethasone), centrifuged at 100 g for 10 min then resuspended in culture medium (Leibovitz's L-15 Medium) at a concentration of 0.5×10^6 viable cells/mL (number of viable cells assessed using AO/PI staining). Hepatocytes (198 μL) were transferred into wells of a 96-well non-coated plate and placed in a 37° C. incubator for 10 min. Test compound solutions were prepared from 10 mM stocks in DMSO, diluted to 100 μM in 50% (v/v in water) acetonitrile. Test compound samples (2 μl) were added to each well of hepatocytes and incubated at 37° C. Samples (25 μl) were collected at t=0, 15, 30, […] and 120 min, mixed with 6 volumes (150 μl) of acetonitrile containing internal standard (100 nM alprazolam, 200 nM caffeine and 100 nM tolbutamide), vortexed for 5 min and centrifuged for 45 min at 3220 g. An aliquot of supernatant (100 μL) was diluted with 100 μL ultra-pure water, and the mixture was used for LC/MS/MS analysis. All incubations were performed in duplicate. Peak areas were determined from extracted ion chromatograms. The slope value, k, was determined by linear regression of the natural logarithm of the remaining percentage of the parent drug vs. incubation time curve. The in vitro half-life (in vitro t1/2) was determined from the slope value: in vitro t1/2=0.693/k. Conversion of the in vitro t1/2 (in min) into the in vitro intrinsic clearance (in vitro CLint, in μL/min/1×10^6 cells) was done using the following equation (mean of duplicate determinations): • in vitro CLint=kV/N • V=incubation volume (0.2 mL) • N=number of hepatocytes per well (0.1×10^6 cells). Microsomal Clearance Assay

PBS solubility = format: physicochemical; settings: aqueous buffer, kinetic from dmso stock; PBS pH 7.4, 2 hr at 25° C.
Description: Test compounds were prepared as 10 mM stocks in DMSO and 15 μl samples transferred in duplicate into 1.5 mL glass flat bottom vials (BioTech Solutions). Fasted state simulated intestinal fluid (FaSSIF) or PBS (pH 7.4) was added to each vial to final volume of 500 μl. One PTFE encapsulated stir stick (V&P Scientific) was placed in each vial before sealing with PTFE/SIL plugs (BioTech Solutions). Vials were shaken at 1100 rpm for 2 hr at 25° C. Samples were then filtered through MultiScreen Solvinert filter plates (Millipore) via vacuum filtration. Aliquots of filtrate (5 μl) plus 5 μl DMSO were diluted in 490 μl 50% acetonitrile in water containing internal standard. The filtrate was analysed and quantified against a standard of known concentration using LC-MS/MS. Solubility values of the test compound and control compound were calculated as follows: [Sample]=(Area ratiosample*INJ VOL STD*DFsample*[STD])/(Area ratio STD*INJ VOLsample).

| SMILES | mPTP Rat liver pIC50* (mPTP) | hepatocyte CLint at 1 µM [1] [µL/min/1e6 cells] | solubility at 2 h (PBS solubility) [µM] |
| --- | --- | --- | --- |
| O=C(/C=C/c1cc2[nH]ncc2cc1F)NC1CCc2ccccc21 (stereo not shown) [Example 10, (E)-N-(2,3-dihydro-1H-inden-1-yl)-3-(5-fluoro-1H-indazol-6-yl)acrylamide] | 7.6 | 60 | – |
| O=C(/C=C/c1ccc2cn[nH]c2c1)Nc1ccccc1COC1CN(CCF)C1 [Example 30, (E)-N-(2-(((1-(2-fluoroethyl)azetidin-3-yl)oxy)methyl)phenyl)-3-(1H-indazol-6-yl)acrylamide Hydrochloride] | 5.8 | – | – |
| C[C@@H]1CCCC[C@H]1NC(=O)/C=C/c1ccc2cn[nH]c2c1 (single isomer, unassigned) [Example 4a] | 6.5 | – | – |
| O=C(/C=C/c1ccc2cn[nH]c2c1)Nc1ccccc1COC1CCC1 [Example 18, (E)-N-(2-(cyclobutoxymethyl)phenyl)-3-(1H-indazol-6-yl)acrylamide] | 6.7 | – | – |
| CC1COc2ccccc2C1NC(=O)/C=C/c1ccc2cn[nH]c2c1 (stereo not shown) [Example 15, (E)-3-(1H-indazol-6-yl)-N-(3-methylchroman-4-yl)acrylamide] | 6.9 | 20 | 5.9 (≈ 1.97 µg/mL) |
| C[C@@H]1Cc2ccccc2[C@H]1NC(=O)/C=C/c1ccc2cn[nH]c2c1 (single isomer, unassigned) [Example 14d] | 6.2 | – | – |
| CC1Cc2ccccc2C1NC(=O)/C=C/c1ccc2cn[nH]c2c1 (stereo not shown) [Example 14, (E)-3-(1H-indazol-6-yl)-N-(2-methyl-2,3-dihydro-1H-inden-1-yl)acrylamide] | 7.3 | – | – |
| C#CCOCc1ccccc1NC(=O)/C=C/c1ccc2cn[nH]c2c1 [Example 40, (E)-3-(1H-indazol-6-yl)-N-(2-((prop-2-yn-1-yloxy)methyl)phenyl)acrylamide] | 7.1 | – | – |
| C[C@@H]1CCCC[C@H]1NC(=O)/C=C/c1ccc2cn[nH]c2c1 (single isomer, unassigned) [Example 4b] | 6.3 | – | – |
| O=C(/C=C/c1cc2[nH]ncc2cc1Cl)NC1CCc2ccccc21 (stereo not shown) [Example 12, (E)-3-(5-chloro-1H-indazol-6-yl)-N-(2,3-dihydro-1H-inden-1-yl)acrylamide] | 6.0 | – | – |

Results, then the molecule that gave them:

| mPTP Rat liver pIC50* (mPTP) | hepatocyte CLint at 1 µM [1] [µL/min/1e6 cells] | solubility at 2 h (PBS solubility) [µM] | SMILES |
| --- | --- | --- | --- |
| 5.9 | – | – | O=C(/C=C/c1ccc2cn[nH]c2c1)Nc1cccc(F)c1 [Example 23, (E)-N-(3-fluorophenyl)-3-(1H-indazol-6-yl)acrylamide] |
| 7.0 | – | – | Cc1cccc(F)c1NC(=O)/C=C/c1ccc2cn[nH]c2c1 [Example 33, (E)-N-(2-fluoro-6-methylphenyl)-3-(1H-indazol-6-yl)acrylamide] |
| 6.4 | – | – | O=C(/C=C/c1ccc2cn[nH]c2c1)Nc1cccc(Cl)c1 [Example 22, (E)-N-(3-chlorophenyl)-3-(1H-indazol-6-yl)acrylamide] |
| 6.8 | – | – | O=C(/C=C/c1ccc2cn[nH]c2c1)Nc1ccccc1CO [Example 27, (E)-N-(2-(hydroxymethyl)phenyl)-3-(1H-indazol-6-yl)acrylamide] |
| 5.8 | – | – | CC1CC(NC(=O)/C=C/c2ccc3cn[nH]c3c2)c2ccccc21 (stereo not shown) [Example 39, (E)-3-(1H-indazol-6-yl)-N-(3-methyl-2,3-dihydro-1H-inden-1-yl)acrylamide] |
| 6.9 | – | – | O=C(/C=C/c1ccc2cn[nH]c2c1)Nc1ccccc1COc1ccccc1 [Example 17, (E)-3-(1H-indazol-6-yl)-N-(2-(phenoxymethyl)phenyl)acrylamide] |
| 6.2 | – | – | O=C(/C=C/c1ccc2cn[nH]c2c1)N[C@@H]1C[C@H](F)c2ccccc21 (single isomer, unassigned) [Example 26] |
| 5.0 | – | – | Cc1cccc2c1C(NC(=O)/C=C/c1ccc3cn[nH]c3c1)CC2 (stereo not shown) [Example 38, (E)-3-(1H-indazol-6-yl)-N-(7-methyl-2,3-dihydro-1H-inden-1-yl)acrylamide] |
| 6.6 | – | – | O=C(/C=C/c1ccc2cn[nH]c2c1)N[C@@H]1C[C@@H](F)c2ccccc21 (single isomer, unassigned) [Example 25] |
| 6.0 | – | – | O=C(/C=C/c1ccc2cn[nH]c2c1)Nc1ccccc1OCc1ccccc1 [Example 16, (E)-N-(2-(benzyloxy)phenyl)-3-(1H-indazol-6-yl)acrylamide] |
| 6.5 | – | – | Cc1cccc(NC(=O)/C=C/c2ccc3cn[nH]c3c2)c1 [Example 21, (E)-3-(1H-indazol-6-yl)-N-(m-tolyl)acrylamide] |
| 5.7 | – | – | O=C(/C=C/c1cc2[nH]ncc2cn1)NC1CCc2ccccc21 (stereo not shown) [Example 35, (E)-N-(2,3-dihydro-1H-inden-1-yl)-3-(1H-pyrazolo[4,3-c]pyridin-6-yl)acrylamide] |
| 7.6 | 179 | 0.08 (≈ 0.0315 µg/mL) | O=C(/C=C/c1ccc2cn[nH]c2c1)Nc1cccc2cnn(Cc3ccccc3)c12 [Example 19, (E)-N-(1-benzyl-1H-indazol-7-yl)-3-(1H-indazol-6-yl)acrylamide] |
| 7.5 | 10 | 1.3 (≈ 0.413 µg/mL) | Cn1ncc2cccc(NC(=O)/C=C/c3ccc4cn[nH]c4c3)c21 [Example 20, (E)-3-(1H-indazol-6-yl)-N-(1-methyl-1H-indazol-7-yl)acrylamide] |
